Experimental data as given in patent US10357486B2, “Treatment of cognitive impairment with PDE4 inhibitor” (Universiteit Maastricht, priority 2013, dated 2019).
Entries after “also recorded” stand apart in the source; their conditions may differ. Marks after values point to notes of the source that are not given here.

Tests used:
[1] = tested on: spatial memory in male C57BL/6NCrl mice; experiment: Object Location Task (OLT), 24-hour retention interval; format: in vivo; details: for d2 index, discrimination index between the new and familiar objects for T2: given 3 hours after T1, T2 after 24 h, mean (SEM)
Source text: The objective of this study was to evaluate the cognitive improvement effects of Roflumilast on spatial memory employing Object Location Task (OLT) in male C57BL/6NCrl mice. Roflumilast was compared with data of the already established PDE4 inhibitor Rolipram in the same model.
Maintenance of Animals Twenty-four 7 month-old male C57BL/6NCrl mice (Charles River, L'Arbresle, France) were used (average body weights: 27.6 g). The animals were kept under a 12/12-hour light/dark cycle (lights on from 07.00 pm to 07.00 am) with free access to food and water. All testing was done between 09.00 am and maximally 06.00 pm.
Preparation of Compounds for Administration Both rolipram (Sigma-Aldrich St. Louis, USA; MW 275.34) and roflumilast (Biocrea, Radebeul, Germany; MW 403.21) were dissolved in dimethylsulfoxide (DMSO) and kept at 4 ° C.; this stock solution was used for further dilutions in 0.5% methylcellulose. Each of rolipram and roflumilast is used in form of its free base. All injected solutions consisted of 0.5% methylcellulose with a fixed DMSO percentages (1.2%) (vehicle).
Object Location Task Studies in Rodents For the Object Location Task (OLT), doses of 0.01 mg/kg, 0.03 mg/kg and 0.1 mg/kg of Rolipram or Roflumilast or vehicle were administered subcutaneously (s.c.). Based on previous findings, PDE4 inhibitor single administration was performed 3 hours after the first trial as this has an optimum effect on object memory performance. The injection volume was 5 μl/g.
The OLT apparatus consisted of a circular arena, 40 cm in diameter. Half of the 40 cm transparent polyvinyl chloride wall was covered from the outside with white paper. Two objects were placed symmetrically about 10 cm away from the wall on the separation line, between the transparent and covered side of the arena. Four different sets of objects were available: (1) a cone made of brass (maximal diameter 6 cm and total height 3.8 cm), (2) a transparent glass bottle (diameter 2.7 cm, height 8.5 cm) filled with sand and water, (3) a massive metal cube (2.5 cm×5 cm×7.5 cm) with two holes (diameter 1.5 cm), and (4) a massive aluminum cube with a tapering top (4.5 cm×4.5 cm×8.5 cm).
A testing session comprised two trials of 4 minutes. Before each trial, mice were placed in an empty Makrolon cage (incubation cage) for the same amount of time as the trial (4 min). During the first trial (T1), two identical objects were placed symmetrically about 10 cm away from the wall on the separation line between the transparent and covered side of the arena. After the first exploration period of 4 min, the mouse was put back in its home cage. Mice then received treatment at 3 hours post T1. Subsequently, after a predetermined delay interval (24h), the mouse was placed in the apparatus for the second trial of 4 min (T2). Two identical objects as in T1 were used; one object was placed in the previously used position, whereas the other was placed in a novel position. The novel position of the object could either be a fixed distance towards the front or a fixed distance towards the back of the arena for both objects. The times spent exploring each object during T1 and T2 were recorded manually using a personal computer. All objects and locations were used in a balanced manner to exclude possible object and/or location preferences. To avoid olfactory cues, the objects were thoroughly cleaned with 70% ethanol after each trial. The testing order of conditions was determined randomly.
Statistical Data Analysis The measurements reflected the time spent by the mice in exploring each object during T1 and T2. The time spent in exploring the two identical samples in T1 were represented by ‘a1’ and ‘a2’, respectively. The time spent in exploring the sample and the new object in T2 were represented by ‘a’ and ‘b’, respectively. From these exploration times the following variables were calculated: e1, e2, and d2 (Table 1). The d2 index is a relative measure of discrimination corrected for exploratory activity. […]

[2] = tested on: healthy adults (18 to 35 years); experiment: Verbal Learning Task (VLT) in healthy adults, 18 to 35 years; format: in vivo, human
Source text: The objective of this proof-of-concept study was to validate Roflumilast as cognitive enhancer using a translational behavior (i.e., cognitive testing)—EEG (i.e., brain electrical activity) approach.
Verbal Learning Task Analysis_The study utilized Verbal Learning Task (VLT) to analyze the increased number of words remembered following roflumilast administration. The VLT consisted of displaying 30 monosyllable words on a computer screen for a period of 60 seconds. Immediately after the presentation of the words on the computer screen subjects were asked to report as many words as they could recall by memory. This process (presentation and recall) was repeated further two times. In addition, 45 min and 24 h after the last presentation, subjects were again asked to report as many words as they could recall by memory. The set of three recall trials was conducted 60 minutes following administration of the roflumilast therapy.
Statistical Data Analyses Human data was analyzed using IBM SPSS Statistics version 20. General Linear Models for repeated measures were applied with the placebo condition included as contrast. Statistical outcomes for Tests of Within-Subjects Effects and
Tests of Within-Subjects Contrasts were regarded for immediate and delayed free recall scores and for the summed immediate recall score (i.e. immediate 1+immediate 2+immediate 3). The factor Treatment (4 levels; placebo, roflumilast 100 mcg, roflumilast 300 mcg and roflumilast 1000 mcg) was included as a within subjects factor. For the analysis of the EEG data, the factor Channel (5 levels; Fz, FCz, Cz, CPz, and Pz) was included as a second within subjects factor. Peak and latency values of three memory related ERP's were analysed; i.e. P300, N400 and P600. In case of significant findings (p<0.05) post-hoc t-tests were performed to reveal which of the five midline electrodes contributed to the effect.

O=C(Nc1c(Cl)cncc1Cl)c1ccc(OC(F)F)c(OCC2CC2)c1 [roflumilast, N-(3,5-dichloropyridin-4-yl)-3-cyclopropylmethoxy-4-difluoromethoxybenzamide]
d2 index, discrimination index between the new and familiar objects for T2 ([1]; 0.01 mg/kg s.c.): 0.04 (0.05) | d2 index compared with the vehicle condition (post-hoc Bonferroni t-test) ([1]; 0.03 mg/kg s.c.): differed significantly from the vehicle condition | d2 index, discrimination index between the new and familiar objects for T2 ([1]; 0.03 mg/kg s.c.): 0.34 (0.03) ### | d2 index compared with zero (one-sample t-test) ([1]; 0.03 mg/kg s.c., after twenty-four hours): significantly differed from zero | d2 index, discrimination index between the new and familiar objects for T2 ([1]; 0.1 mg/kg s.c.): 0.00 (0.06) | effect on spatial memory measured by the object location task test ([1]; single subcutaneous administration of 0.01 mg/kg): nearly no effect | effect on spatial memory measured by the object location task test ([1]; single subcutaneous administration of 0.03 mg/kg, 0.03 mg/kg): effective; also recorded: pronounced effect | effect on spatial memory measured by the object location task test ([1]; single subcutaneous administration of 0.1 mg/kg): completely no effect | placebo-corrected fold-improvement in VLT ([2]; 100 mcg single dose, healthy volunteer study, 3rd trial): 1.12 | number of words on the 3rd trial of VLT ([2]; 100 mcg single dose, young volunteers, placebo 21.25): 23.7 words | improvement in number of correct words recalled in VLT (average) ([2]; single oral dose of 100 mcg, after the third trial): 2.5 words
